One test deals with P388/ADR. Briefly: Cell proliferation assay GI50, drug resistant P388/ADR. The format is cell-based. As to conditions: Mus musculus; P388/ADR (drug resistant) cells. How it is done: (§1) All the cell lines were grown according to the conditions recommended by American Type Culture Collection. An aliquot of 90 μL of cells (2.2×10^4 cells/mL) was added to a well of a 96-well microtiter plate containing 10 μL of a 10% DMSO in RPMI-1640 media solution containing 1 nM to 100 μM of 4-(bicyclo[2.2.1]hept-5-en-2-yl)-1-(pyridin-2-ylmethylidene)thiosemicarbazide (0.1 nM to 10 μM final). An aliquot of 90 μL of cells was added to a well of a 96-well microtiter plate containing 10 μL of a 10% DMSO in RPMI-1640 media solution without compound as the control sample for maximal cell proliferation (AMax). The samples were mixed by agitation and then incubated at 37° C. for 48 h in a 5% CO2-95% humidity incubator. After incubation, the samples were removed from the incubator and 20 μL of CellTiter 96 AQUEOUS One Solution Cell Proliferation™ reagent (Promega) was added. […] Using an absorbance plate reader (Model 1420 Wallac Instruments), an initial reading (T=0) was made approximately 1-2 min after addition of the solution, employing absorbance at 490 nm. This determines the possible background absorbance of the test compounds. No absorbance for 4-(bicyclo[2.2.1]hept-5-en-2-yl)-1-(pyridin-2-ylmethylidene)thiosemicarbazide was found at 490 nm. After the 2-4 h incubation, the samples were read for absorbance as above (ATest). […]

In a further test the test system is PC-3. Briefly: Cell proliferation assay GI50, PC-3. The format is cell-based. The settings on record: Homo sapiens; PC-3 cells, 48 h. Here is the method: as §1
In the next test the test system is MCF-7. Nature of the test: Cell proliferation assay GI50, MCF-7. The format is cell-based. The settings on record: Homo sapiens, MCF7; MCF-7 cells, 48 h. How it is done: as §1
The next test has as its system HeLa. Briefly: Cell proliferation assay GI50, HeLa. The format is cell-based. As to conditions: Homo sapiens; HeLa cells, 48 h. How it is done: as §1
The next test relates to MDA-MB-231. Nature of the test: Cell proliferation assay GI50, MDA-MB-231. The format is cell-based. As to conditions: Homo sapiens; MDA-MB-231 cells, 48 h. Here is the method: as §1
The subject of another test is DLD-1. Nature of the test: Cell proliferation assay GI50, DLD-1. The format is cell-based. The settings on record: Homo sapiens; DLD-1 cells, 48 h. Here is the method: as §1
The subject of another test is NCI-H23. Nature of the test: Cell proliferation assay GI50, NCI-H23. The format is cell-based. The settings on record: Homo sapiens; NCI-H23 cells, 48 h. Here is the method: as §1
Another test relates to P388. Briefly: Cell proliferation assay GI50, drug sensitive P388. The format is cell-based. The settings on record: Mus musculus; P388 (drug sensitive) cells. How it is done:
as §1

For another test, the system named is K562. Nature of the test: Cell proliferation assay GI50, K562. The format is cell-based. The settings on record: Homo sapiens; K562 cells, 48 h. Here is the method: as §1
The subject of a further test is ZR-75-1. Briefly: Caspase cascade activation (N-(Ac-DEVD)-N'-ethoxycarbonyl-R110 fluorogenic substrate) in ZR-75-1 cells. As to conditions: 48 h incubation; for Caspase activity Ratio (net RFU of test compound to control): 0.016 to 10 μM final. The format is cell-based, human. Here is the method:
(§2) Human breast cancer cell lines T47D and ZR-75-1 were grown according to media component mixtures designated by American Type Culture Collection+10% FCS (Invitrogen Corporation), in a 5% CO2-95% humidity incubator at 37° C. T-47D and ZR-75-1 cells were maintained at a cell density between 50 and 80% confluency at a cell density of 0.1 to 0.6×10^6 cells/mL. Cells were harvested at 600×g and resuspended at 0.65×10^6 cells/mL into appropriate media+10% FCS. An aliquot of 45 μL of cells was added to a well of a 96-well microtiter plate containing 2.5 μL of a 10% DMSO in RPMI-1640 media solution containing 0.16 to 100 μM of 4-(bicyclo[2.2.1]hept-5-en-2-yl)-1-(pyridin-2-ylmethylidene)thiosemicarbazide or other test compound (0.016 to 10 μM final). An aliquot of 22.5 μL of cells was added to a well of a 384-well microtiter plate containing 2.5 μL of a 10% DMSO in RPMI-1640 media solution without test compound as the control sample. The samples were mixed by agitation and then incubated at 37° C. for 48 h in a 5% CO2-95% humidity incubator. After incubation, the samples were removed from the incubator and 25 μL of a solution containing 14 μM of N-(Ac-DEVD)-N′-ethoxycarbonyl-R110 (SEQ ID NO:1) fluorogenic substrate (Maxim Pharmaceuticals, Inc.; WO99/18856), 20% sucrose (Sigma), 20 mM DTT (Sigma), 200 mM NaCl (Sigma), 40 mM Na PIPES buffer pH 7.2 (Sigma), and 500 μg/ml lysolecithin (Calbiochem) was added. The samples were mixed by agitation and incubated at room temperature. Using a fluorescent plate reader (Model SpectraMax Gemini, Molecular Devices), an initial reading (T=0) was made approximately 1-2 min after addition of the substrate solution, employing excitation at 485 nm and emission at 530 nm, to determine the background fluorescence of the control sample. After the 3 h incubation, the samples were read for fluorescence as above (T=3 h).
(§3) The Relative Fluorescence Unit values (RFU) were used to calculate the sample readings as follows:
(§4) RFU(T=3 h)−Control RFU(T=0)=Net RFU(T=3 h)
(§5) The activity of caspase cascade activation was determined by the ratio of the net RFU value for 4-(bicyclo[2.2.1]hept-5-en-2-yl)-1-(pyridin-2-ylmethylidene)thiosemicarbazide or other test compound to that of control samples. The EC50 (nM) was determined by a sigmoidal dose-response calculation (Prism 2.0, GraphPad Software Inc.).

The subject of a further test is T-47D. Briefly: Caspase cascade activation (N-(Ac-DEVD)-N'-ethoxycarbonyl-R110 fluorogenic substrate) in T-47D cells. The format is cell-based, human. As to conditions: 48 h incubation; for Caspase activity Ratio (net RFU of test compound to control): 0.016 to 10 μM final; for EC50: Homo sapiens, T47D, read-out: Caspase potency EC50. Here is the method: as §2, §3, §4, §5

For the next test, the system named is SK-Br-3. Nature of the test: Cell proliferation assay GI50, SK-Br-3. The format is cell-based. As to conditions: Homo sapiens; SK-Br-3 cells, 48 h. Here is the method: as §1
A further test has as its system T47-D. Briefly: Cell proliferation assay (CellTiter 96 AQUEOUS One) GI50, T47-D. The format is cell-based. The settings on record: Homo sapiens, T47D; T47-D cells, 48 h. Here is the method: as §1

As for `S=C(NN=Cc1ccccn1)NC1CC2C=CC1C2` (stereo not shown) [Example 16, 4-(Bicyclo[2.2.1]hept-5-en-2-yl)-1-(pyridin-2-ylmethylidene)thiosemicarbazide], the GI50 (commonly the concentration that inhibits growth by half) in the test with P388/ADR was 0.02 µM; in the test with PC-3 it was 0.03 µM; in the test with MCF-7 it was 0.007 µM; in the test on HeLa, 0.06 µM; in the test on MDA-MB-231, 0.03 µM; with DLD-1 it was 0.09 µM. Besides, the GI50 was 0.03 µM in the test on NCI-H23; 0.02 µM in the test on P388; 0.05 µM in the test on K562; 0.005 µM with SK-Br-3; 0.005 µM in the test on T47-D. Further, the “Caspase activity Ratio (net RFU of test compound to control)” value in the test with ZR-75-1 is 3.0; in the test on T-47D, 3.5. The EC50 (in general, the concentration at which the effect is half-maximal) in the test with ZR-75-1 (Homo sapiens, read-out: Caspase potency EC50) is 0.862 µM; in the test on T-47D, 0.36 µM.

Turning to `Cc1cccc(C=NNC(=S)NC2CC3C=CC2C3)n1` (stereo not shown) [Example 17, 4-(Bicyclo[2.2.1]hept-5-en-2-yl)-1-(6-methyl-pyridin-2-ylmethylidene)thiosemicarbazide], the GI50 in the test with MCF-7 came out at 0.3 µM; in the test with DLD-1 it was 1.7 µM; in the test on NCI-H23, 3 µM; in the test on K562, 3 µM; in the test on SK-Br-3, 0.75 µM; in the test with T47-D it was 1 µM. The “Caspase potency EC50” value in the test with ZR-75-1 is listed as “INACTIVE”. In addition, the entries for the “Caspase activity Ratio (net RFU of test compound to control)” value in the test on ZR-75-1 and in the test on T-47D were 2.5 and 3.3, respectively. For the same molecule, the concentration for a half-maximal effect (EC50) with T-47D worked out at 0.866 µM.
